Source: the NIST ThermoML archive (doi:10.1016/j.tca.2014.12.004)
Numbers after ± are expanded uncertainties.

Columns and labels:
[1] = for thermal conductivity: 101.33 kPa
[2] = Molar enthalpy of transition or fusion; conditions: Crystal; DSC

CCCCCCCCCCCC(=O)O [dodecanoic acid]
[1]
Conditions	Normal melting temperature [°C]	thermal conductivity [W/m/K]
303.15 K, Crystal	–	0.216 ± 0.016
308.15 K, Crystal	–	0.218 ± 0.016
313.15 K, Crystal	–	0.208 ± 0.015
323.15 K, Liquid	–	0.14 ± 0.01
333.15 K, Liquid	–	0.14 ± 0.01
Crystal, DTA	42.80 ± 5	–

Conditions	Molar enthalpy of transition or fusion [kcal/mol]
[2]	7.56 ± 0.621
